Measurements as given in patent publication US6716849B1, “Substituted phenylcyclohexane carboxylic acid amides that have an adenosine uptake inhibiting effect” (Bayer Aktiengesellschaft, priority 2001, dated 2004).
In brackets after ≈: the same amount, converted by molar mass.

What was measured:
[1] = test system: subdural haematoma (SDH); experiment: Subdural haematoma in rats (SDH), infarct volume; type: in vivo; conditions: rat SDH, 0.001 mg/(kg×h) i.v. infusion
Description: The neuroprotective activity of the compounds according to the invention was determined in the animal model of transient occlusion of the middle cerebral artery (tMCA-O) and the subdural haematoma (SDH). 5. Subdural Haematoma in Rats (SDH) This rodent model (rat) imitates pathophysiology and cerebral pathology of the blunt skull-brain trauma with subdural hemorrhage and development of a subdural haematoma in man. (Neurosurgery 190, 27,433-439). Under anaesthesia, the animals are unilaterally injected subdurally with their own blood. Under the haematoma, an infarct forms. The substance is administered according to different schedules and via different administration routes (i.v., i.p.). The size of the infarct is determined as described in the model of the transient focal ischaemia in rats (tMCA-O).

[2] = biological target: T1, adenosine transport protein from calf cortex (Bos taurus, UniProt A0ACM8Q8F7); experiment: Binding to an adenosine transport protein from calf cortex (displacement of radio-labelled NBTI); conditions: membrane preparation of cerebral calf cortex, read-out: Ki, inhibition of NBTI-binding
T1 construct: a membrane preparation of cerebral calf cortex is used, which expresses the relevant adenosine transporter; from tissue; host or cells: cerebral calf cortex, membrane preparation
T1 sequence (A0ACM8Q8F7 1-456): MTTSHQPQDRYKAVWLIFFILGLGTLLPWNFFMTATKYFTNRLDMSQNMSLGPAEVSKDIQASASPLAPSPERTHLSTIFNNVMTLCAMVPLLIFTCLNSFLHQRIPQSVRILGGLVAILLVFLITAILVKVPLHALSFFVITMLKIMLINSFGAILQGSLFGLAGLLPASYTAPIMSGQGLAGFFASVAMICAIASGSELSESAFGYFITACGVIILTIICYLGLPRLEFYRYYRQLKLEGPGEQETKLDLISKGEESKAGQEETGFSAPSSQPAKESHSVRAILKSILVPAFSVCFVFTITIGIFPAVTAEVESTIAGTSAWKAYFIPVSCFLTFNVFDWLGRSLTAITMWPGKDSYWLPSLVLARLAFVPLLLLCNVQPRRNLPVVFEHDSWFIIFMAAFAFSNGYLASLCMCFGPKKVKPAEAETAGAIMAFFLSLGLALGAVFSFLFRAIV
From the text: 2. Binding of the Compounds According to the Invention to an Adenosine Transport Protein From Calf Cortex
The ability of substances to influence the adenosine uptake system is investigated firstly by determining the binding affinity of selected substances to an adenosine transport protein of the CNS and secondly by determining the inhibiting effect of the substances on functional adenosine uptake.
For the binding test, a membrane preparation of cerebral calf cortex is used, which expresses the relevant adenosine transporter. The binding affinity (Ki value) is determined by measuring the displacement of a specific radio-labelled ligand [nitrobenzylthioinosine (NBTI)] from the binding site in question by test substances. The binding site is the binding site on the transport protein which is relevant for the actual transport process. Thus, binding of test substances in this experiment results in a quantifiable release of bound radioactive NBTI which makes determination of the Ki value possible. (J. Neurochemistry 1982,39, 184-191).

[3] = Determination of the solubility (precipitation method, physiological saline, HPLC); type: physicochemical; conditions: saline or isotonic, kinetic from dmso stock, 25° C., 24 hours equilibration
Description: 1. Determination of the Solubility
To determine the solubility, a precipitation method was used:
10 mg of the test substance are completely dissolved in 50 μl of DMSO (stock solution). 20 μl of this solution are added to 2000 μl of physiological saline. This solution, in turn, is shaken at 25° C. in a Thermomixer Comfort (from Eppendorf) at 1400 rpm for 24 hours for equilibration.
The precipitated fractions of the test substance are centrifuged off using a Biofuge 15 from Heraeus at 14,000 rpm for 5 min. 1300 μl of the supernatant are once more centrifuged using a Microfuge from Beckmann at 45,000 rpm=125,000 g.
10 μl of this centrifigation supernatant are then diluted with 1000 μl of DMSO, and this solution is measured by HPLC (Hewlett Packard 1090, method, gradient from 100% PBS buffer pH=4 to 10% buffer/90% acetonitrile over a period of 15 min, column: RPI8; PBS buffer pH=4 is a physiological saline solution adjusted to pH=4 using phosphate buffer).
Using a calibration curve, the measured peak area of the HPLC measurement is converted into substance concentration. For the calibration curve, 20 μl of the stock solution are diluted successively with DMSO such that 5 concentrations of 2.5 mg/l to 2000 mg/l result. These solutions are likewise measured by HPLC (see method above), and the peak areas are plotted as a function of the concentrations.

[4] = test system: transient occlusion of the middle cerebral artery (tMCA-O); experiment: tMCA-O: transient occlusion of the middle cerebral artery, infarct volume; type: in vivo; conditions: rat tMCA-O, 0.001 mg/(kg×h) i.v. infusion, begun at start of reperfusion, evaluated after 2 days
Description: The neuroprotective activity of the compounds according to the invention was determined in the animal model of transient occlusion of the middle cerebral artery (tMCA-O) and the subdural haematoma (SDH). […] Under general anaesthesia (inhalation anaesthesia with isoflurane), the hairs in the lower anterior neck region are shaved off, in the dorsal position, the head is fixed, the skin is disinfected and the neck area is opened in the middle along the trachea. The right lateral neck muscles are severed bluntly and, together with the skin, pulled to the side (retractors) so that the common carotid artery is clearly visible. The common carotid artery is exposed towards the head up to the point where it branches into the internal carotid artery and the external carotid artery. Using surgical suture material, the common carotid artery (near the thorax) and the external carotid artery are tied off. Using a microclamp; the internal carotid artery is closed temporarily. […] After 2 days of post-operative survival, the volume of the cerebral infarct is determined with the aid of a computer-supported image analysis system using preproduced series of histological brain sections. The size of the infarct is evaluated differentially by cortex, striatum, hippocampus and other brain areas.

Ki [2] [nM]	solubility at 24 h [3] [µg/mL]	SMILES	reduction of the infarct volume in comparison to control animals [1] [%]	reduction of the infarct volume in comparison to control animals [4] [%]
2	176 (≈ 311 µM)	NC(=O)[C@@H](NC(=O)[C@@H]1CCCC[C@H]1c1ccc(Cn2c(CN3CCOCC3)nc3cccnc32)cc1)c1ccccc1 [Example 3]	30	81
		Cl.NC(=O)[C@@H](NC(=O)[C@@H]1CCCC[C@H]1c1ccc(Cn2c(CN3CCOCC3)nc3ncccc32)cc1)c1ccccc1 [Example 4, (S)-N-{{(1R,2R)-{4-{2-[2-(Morpholin-4-yl-methyl)-1H-pyrido[2,3-d]imidazol-1-yl]methyl}-phenyl}-cyclohex-1-yl}carbonyl}-phenylglycinamide hydrochloride]	45	
2	16 (≈ 28.3 µM)	CN1CCN(c2nc3ccccc3n2Cc2ccc([C@@H]3CCCC[C@H]3C(=O)N[C@H](C(N)=O)c3ccccc3)cc2)CC1 [Example 5, (S)-N-{{(1R,2R)-2-{4-{[2-(4-Methyl-piperazin-1-yl)benzimidazol-1-yl]methyl}-phenyl}-cyclohex-1-yl}carbonyl}-phenylglycinamide]		91
